According to ChEMBL document CHEMBL4507319 (2021):

Key:
Conditions in all cases: Compound concentration 1000.0 nM
[1] = molecular target: Mitogen-activated protein kinase kinase kinase kinase 4 (Homo sapiens) (UniProt O95819)
[2] = molecular target: T1, Serine/threonine-protein kinase 17B (Homo sapiens) (UniProt O94768)
T1 sequence (whole entry): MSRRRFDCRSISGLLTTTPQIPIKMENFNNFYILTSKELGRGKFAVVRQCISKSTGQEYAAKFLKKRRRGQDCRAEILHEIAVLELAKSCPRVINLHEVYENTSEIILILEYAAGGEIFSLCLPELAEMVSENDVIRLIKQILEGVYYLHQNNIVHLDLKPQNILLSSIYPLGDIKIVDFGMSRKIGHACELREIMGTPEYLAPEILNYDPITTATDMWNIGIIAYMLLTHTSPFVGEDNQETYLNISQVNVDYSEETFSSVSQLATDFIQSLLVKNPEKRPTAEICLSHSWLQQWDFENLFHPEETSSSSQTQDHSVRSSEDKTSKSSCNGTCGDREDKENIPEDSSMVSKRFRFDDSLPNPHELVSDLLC

[3] = molecular target: T2, Ephrin type-A receptor 8 (Homo sapiens) (UniProt P29322)
T2 sequence (whole entry): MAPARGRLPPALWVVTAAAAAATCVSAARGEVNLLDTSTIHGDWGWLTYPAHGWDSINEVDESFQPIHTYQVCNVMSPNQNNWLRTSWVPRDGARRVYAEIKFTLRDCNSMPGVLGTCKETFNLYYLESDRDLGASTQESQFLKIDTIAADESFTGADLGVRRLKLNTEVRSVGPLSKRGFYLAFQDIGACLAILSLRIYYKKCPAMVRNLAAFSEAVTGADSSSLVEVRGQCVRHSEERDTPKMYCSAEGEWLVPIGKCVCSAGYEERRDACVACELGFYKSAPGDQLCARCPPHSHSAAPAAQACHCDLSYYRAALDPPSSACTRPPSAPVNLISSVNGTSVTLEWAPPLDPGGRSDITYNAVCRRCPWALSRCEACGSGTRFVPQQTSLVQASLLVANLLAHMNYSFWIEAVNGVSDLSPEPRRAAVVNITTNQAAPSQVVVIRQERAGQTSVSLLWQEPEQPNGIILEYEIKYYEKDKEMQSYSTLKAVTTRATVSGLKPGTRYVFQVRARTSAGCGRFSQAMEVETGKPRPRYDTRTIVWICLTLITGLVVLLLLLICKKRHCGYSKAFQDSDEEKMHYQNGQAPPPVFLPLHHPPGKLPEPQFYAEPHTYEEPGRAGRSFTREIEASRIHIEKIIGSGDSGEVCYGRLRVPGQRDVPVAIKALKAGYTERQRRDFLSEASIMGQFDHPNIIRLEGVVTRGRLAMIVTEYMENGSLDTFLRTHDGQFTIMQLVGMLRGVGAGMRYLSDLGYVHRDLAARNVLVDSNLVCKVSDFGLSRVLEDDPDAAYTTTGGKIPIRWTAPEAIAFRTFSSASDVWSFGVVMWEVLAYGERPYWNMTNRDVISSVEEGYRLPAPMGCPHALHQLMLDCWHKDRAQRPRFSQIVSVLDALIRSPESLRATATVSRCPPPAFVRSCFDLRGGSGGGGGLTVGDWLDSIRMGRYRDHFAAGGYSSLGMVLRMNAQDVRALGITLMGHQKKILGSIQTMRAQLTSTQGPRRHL

[4] = molecular target: Tyrosine-protein kinase Yes (Homo sapiens) (UniProt P07947)
Chain of Tyrosine-protein kinase Yes (Homo sapiens) (P07947 2-543 limits assumed): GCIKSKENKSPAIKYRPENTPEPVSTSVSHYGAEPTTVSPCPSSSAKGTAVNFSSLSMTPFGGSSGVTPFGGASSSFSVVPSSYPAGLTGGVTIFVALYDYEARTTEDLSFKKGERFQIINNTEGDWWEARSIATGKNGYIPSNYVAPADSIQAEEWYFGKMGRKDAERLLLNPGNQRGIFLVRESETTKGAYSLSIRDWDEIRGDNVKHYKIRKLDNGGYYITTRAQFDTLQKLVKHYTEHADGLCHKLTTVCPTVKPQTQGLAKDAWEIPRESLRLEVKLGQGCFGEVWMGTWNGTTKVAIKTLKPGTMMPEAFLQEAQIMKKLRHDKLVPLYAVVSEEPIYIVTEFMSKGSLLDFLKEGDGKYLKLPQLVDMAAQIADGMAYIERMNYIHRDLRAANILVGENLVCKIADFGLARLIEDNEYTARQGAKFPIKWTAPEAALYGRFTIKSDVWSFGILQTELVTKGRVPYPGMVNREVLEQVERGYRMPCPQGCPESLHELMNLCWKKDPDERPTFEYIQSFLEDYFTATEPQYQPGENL

[5] = molecular target: T3, Serine/threonine-protein kinase Nek1 (Homo sapiens) (UniProt Q96PY6)
T3 sequence (whole entry): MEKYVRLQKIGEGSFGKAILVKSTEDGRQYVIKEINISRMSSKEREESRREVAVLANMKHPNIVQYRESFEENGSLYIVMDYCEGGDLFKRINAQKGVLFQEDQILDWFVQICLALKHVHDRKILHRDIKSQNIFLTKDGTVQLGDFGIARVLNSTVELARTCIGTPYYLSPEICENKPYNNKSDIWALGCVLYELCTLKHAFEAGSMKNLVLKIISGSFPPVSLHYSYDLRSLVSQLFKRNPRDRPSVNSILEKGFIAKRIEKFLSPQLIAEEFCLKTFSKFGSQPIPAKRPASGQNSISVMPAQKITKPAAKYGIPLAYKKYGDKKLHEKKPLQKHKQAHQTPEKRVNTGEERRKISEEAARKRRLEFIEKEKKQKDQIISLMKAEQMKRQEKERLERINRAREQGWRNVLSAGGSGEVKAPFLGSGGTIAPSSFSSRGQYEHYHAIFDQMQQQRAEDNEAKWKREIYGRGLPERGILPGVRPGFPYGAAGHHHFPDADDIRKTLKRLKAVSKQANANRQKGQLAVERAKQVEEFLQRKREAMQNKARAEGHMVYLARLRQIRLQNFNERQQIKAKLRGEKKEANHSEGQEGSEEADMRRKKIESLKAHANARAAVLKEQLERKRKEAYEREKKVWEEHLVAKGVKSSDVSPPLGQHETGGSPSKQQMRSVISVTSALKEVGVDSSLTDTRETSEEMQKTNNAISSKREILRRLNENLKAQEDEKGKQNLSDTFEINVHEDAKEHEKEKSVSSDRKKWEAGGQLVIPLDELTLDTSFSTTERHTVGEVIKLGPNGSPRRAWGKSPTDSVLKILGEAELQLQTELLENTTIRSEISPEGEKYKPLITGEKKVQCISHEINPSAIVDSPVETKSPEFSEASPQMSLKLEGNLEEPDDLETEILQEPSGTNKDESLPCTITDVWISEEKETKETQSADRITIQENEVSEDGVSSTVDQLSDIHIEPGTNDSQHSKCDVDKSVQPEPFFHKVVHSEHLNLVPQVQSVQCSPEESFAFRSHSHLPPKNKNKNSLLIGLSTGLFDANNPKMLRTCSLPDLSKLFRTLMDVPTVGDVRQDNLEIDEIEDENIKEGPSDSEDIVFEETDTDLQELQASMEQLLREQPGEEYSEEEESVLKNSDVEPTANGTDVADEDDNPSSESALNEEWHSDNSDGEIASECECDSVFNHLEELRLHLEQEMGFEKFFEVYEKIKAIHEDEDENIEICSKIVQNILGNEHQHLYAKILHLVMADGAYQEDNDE

[6] = molecular target: Phosphorylase b kinase regulatory subunit alpha, liver isoform (Homo sapiens) (UniProt P46019)
Chain of Phosphorylase b kinase regulatory subunit alpha, liver isoform (Homo sapiens) (P46019 whole entry, canonical isoform): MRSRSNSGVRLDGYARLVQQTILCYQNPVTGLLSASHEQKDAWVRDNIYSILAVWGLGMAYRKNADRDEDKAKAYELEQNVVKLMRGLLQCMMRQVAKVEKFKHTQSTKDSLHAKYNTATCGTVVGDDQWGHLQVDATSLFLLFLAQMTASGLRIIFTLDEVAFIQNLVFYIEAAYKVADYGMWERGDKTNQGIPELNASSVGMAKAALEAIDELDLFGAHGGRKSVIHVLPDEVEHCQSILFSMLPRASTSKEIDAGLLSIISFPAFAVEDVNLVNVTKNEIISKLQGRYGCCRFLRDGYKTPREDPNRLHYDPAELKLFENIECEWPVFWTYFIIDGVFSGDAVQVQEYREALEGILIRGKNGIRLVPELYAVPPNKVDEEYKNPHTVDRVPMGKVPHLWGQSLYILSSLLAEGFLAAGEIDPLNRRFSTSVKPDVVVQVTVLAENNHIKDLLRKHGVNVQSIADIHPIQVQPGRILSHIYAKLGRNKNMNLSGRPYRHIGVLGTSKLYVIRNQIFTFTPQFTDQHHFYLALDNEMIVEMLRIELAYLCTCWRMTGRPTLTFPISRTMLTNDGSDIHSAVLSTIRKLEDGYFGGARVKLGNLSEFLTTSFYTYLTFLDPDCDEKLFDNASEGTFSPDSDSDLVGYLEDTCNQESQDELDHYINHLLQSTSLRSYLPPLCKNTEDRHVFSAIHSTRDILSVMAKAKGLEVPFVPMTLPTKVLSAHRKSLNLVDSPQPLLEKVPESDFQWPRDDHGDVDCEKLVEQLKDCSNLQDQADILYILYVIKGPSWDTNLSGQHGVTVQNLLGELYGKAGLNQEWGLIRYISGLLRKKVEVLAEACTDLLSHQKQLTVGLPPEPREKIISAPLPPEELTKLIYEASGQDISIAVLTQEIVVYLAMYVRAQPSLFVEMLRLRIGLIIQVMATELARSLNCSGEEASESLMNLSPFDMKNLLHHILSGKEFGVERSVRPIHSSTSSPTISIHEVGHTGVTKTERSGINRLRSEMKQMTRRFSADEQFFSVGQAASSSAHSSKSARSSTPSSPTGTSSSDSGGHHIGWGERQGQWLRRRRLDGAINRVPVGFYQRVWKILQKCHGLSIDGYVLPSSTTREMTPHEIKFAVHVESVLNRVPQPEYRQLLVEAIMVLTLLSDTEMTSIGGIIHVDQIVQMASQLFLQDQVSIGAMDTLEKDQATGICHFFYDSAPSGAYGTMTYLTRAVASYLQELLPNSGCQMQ

Measured: residual activity

Chain of Mitogen-activated protein kinase kinase kinase kinase 4 (Homo sapiens) (O95819 2-1239 limits assumed): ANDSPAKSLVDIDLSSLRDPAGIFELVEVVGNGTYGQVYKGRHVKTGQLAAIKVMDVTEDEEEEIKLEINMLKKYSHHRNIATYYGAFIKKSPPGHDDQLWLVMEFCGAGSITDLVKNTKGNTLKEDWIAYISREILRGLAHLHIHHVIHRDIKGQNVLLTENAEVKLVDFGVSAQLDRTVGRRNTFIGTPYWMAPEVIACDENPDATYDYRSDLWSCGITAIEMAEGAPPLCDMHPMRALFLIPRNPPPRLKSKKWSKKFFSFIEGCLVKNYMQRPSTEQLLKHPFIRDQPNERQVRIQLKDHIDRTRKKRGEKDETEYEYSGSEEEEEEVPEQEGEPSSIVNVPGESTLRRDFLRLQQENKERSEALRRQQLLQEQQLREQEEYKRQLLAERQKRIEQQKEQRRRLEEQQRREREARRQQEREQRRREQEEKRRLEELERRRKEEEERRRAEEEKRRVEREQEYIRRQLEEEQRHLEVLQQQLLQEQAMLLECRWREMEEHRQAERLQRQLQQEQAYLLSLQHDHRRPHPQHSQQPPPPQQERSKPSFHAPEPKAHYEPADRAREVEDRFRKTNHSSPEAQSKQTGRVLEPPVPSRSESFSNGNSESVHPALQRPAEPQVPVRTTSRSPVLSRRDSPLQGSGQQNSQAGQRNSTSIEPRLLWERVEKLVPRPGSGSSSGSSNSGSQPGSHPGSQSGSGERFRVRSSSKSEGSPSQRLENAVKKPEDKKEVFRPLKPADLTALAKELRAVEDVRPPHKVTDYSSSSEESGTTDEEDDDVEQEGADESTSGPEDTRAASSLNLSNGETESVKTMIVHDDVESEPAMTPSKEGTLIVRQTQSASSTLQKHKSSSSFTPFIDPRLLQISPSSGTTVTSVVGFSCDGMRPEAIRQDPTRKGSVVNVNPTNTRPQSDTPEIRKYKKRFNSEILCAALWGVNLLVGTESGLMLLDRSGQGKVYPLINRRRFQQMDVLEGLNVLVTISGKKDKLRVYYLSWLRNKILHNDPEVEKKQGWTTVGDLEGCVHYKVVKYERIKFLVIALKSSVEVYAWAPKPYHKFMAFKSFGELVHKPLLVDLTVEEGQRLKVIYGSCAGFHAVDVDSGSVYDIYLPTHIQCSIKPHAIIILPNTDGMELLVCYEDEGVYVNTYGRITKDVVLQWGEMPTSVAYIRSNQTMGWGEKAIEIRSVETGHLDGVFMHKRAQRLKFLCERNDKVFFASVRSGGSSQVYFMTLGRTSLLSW

CCc1ccccc1C(=O)Nc1n[nH]c2c(C)c(F)c(C3C(C#N)=C(C)N(C)C(C)=C3C#N)cc12 [BAY-3827]
inactive: [1] 100% | [2] 100% | [3] 79% | [4] 86% | [5] 100% | [6] 81%

CC1=C(C#N)C(c2ccc3c(c2)c(NC(=O)c2ccccc2C)nn3C)C(C#N)=C(C)N1 [BAY-974]
inactive: [1] 100% | [2] 88% | [3] 100% | [4] 88% | [5] 100% | [6] 89%
